From patent US20040018500A1, “Methods and systems for analyzing complex biological systems” (priority 2001, published 2004)

System: Saccharomyces cerevisiae wild type strain BY4743
Assay: AF1 combined gene expression and metabolite data mapped to KEGG reactions and pathways
Type: cell-based
Source text: In AF1, two different technologies were utilized: gene expression analysis (for examination of mRNA expression) and metabolite analysis. […] As noted previously, existing metabolic databases may be helpful in practicing the methods and systems of the present invention, but many databases include limitations that make their use in data analysis and pathway mapping less than straightforward. […] This caveat to KEGG makes it difficult to pinpoint the correct pathway when attempting to link a gene to a specific pathway. […] The pathway score indicates how meaningful the mapping is, or how likely it is to be correctly indicative of the pathway involved in the perturbation under examination. The method provides a pathway score based on perturbation levels of genes and/or compounds and the information content of each gene and/or compound in the pathway, i.e., a pathway score indicates the extent to which other pathways are mapped to a gene/compound. For example, imagine that two genes are perturbed in a particular experiment. One gene maps to only one pathway, giving a high degree of probability that the perturbed pathway is the one identified in the mapping. The second gene maps to three pathways. In the later example, there is only one-third the probability that the pathway identified in the mapping is the one perturbed. The present invention provides a method for calculating the pathway scores, so that more weight is given to a score of a gene or compound that maps to only one pathway than to a score of a gene or compound that maps to multiple pathways. […] Where n=the total number of genes in the pathway; ipath—count=the number of pathways containing a gene; and j=the number of genes in the pathway that are perturbed. Another factor to be considered when weighting a pathway score is the degree of perturbation. Degree of perturbation can be calculated, for example, based on a number of standard deviations from a norm, and included in an equation such as the one shown above, so that not only the number of pathways is taken into account, but also accounts for the amount of gene transcript or compound present as compared to a control. Compounds were also linked to pathways using the KEGG database. […] Of the 676 compounds under consideration, 77 were detected in the AF1 samples. […] The multiple mapping feature of KEGG makes it difficult to pinpoint the correct pathway when trying to link a compound to a specific pathway. […] A pathway score calculation is applied to the compounds to account for both information content (number of pathways a compound maps to) and perturbation level. The data were then combined to determine the number of reactions showing an enzyme and at least one compound perturbed, and to determine the number of pathways having at least one enzyme and one perturbed compound perturbed. The results of the analysis are represented in Tables 16 and 17, and were difficult to interpret, illustrating that the ability to draw conclusions from compound mapping to pathways is limited when absent additional data.

For C[C@@H]1[C@H](O)[C@@H](C)/C=C/C=C/C=C/C=C/C=C/C=C/C=C/[C@H](O[C@@H]2O[C@H](C)[C@@H](O)[C@H](N)[C@@H]2O)C[C@@H]2O[C@](O)(C[C@@H](O)C[C@@H](O)[C@H](O)CC[C@@H](O)C[C@@H](O)CC(=O)O[C@H]1C)C[C@H](O)[C@H]2C(=O)O [Amphoteracin B], the “Number Of Pathways Having at Least One Enzyme and One Compound Perturbed (# Reactions)” value was 37 and the “Number of Reactions Having an Enzyme and at Least One Compound Perturbed” value was 54.
